Test results from article PMC7895558, “Antiprotozoal Compounds from Urolepis hecatantha (Asteraceae)” (Evidence-based Complementary and Alternative Medicine : eCAM, 2021).
Where “and” joins values, the source holds several entries; their conditions need not be identical. Equal entries are not always repeated. Where two headings read alike, the source gives them in different places.

What was measured:
[1] = system: Trypanosoma cruzi epimastigotes (Tulahuen 2 strain); test: in vitro anti-Trypanosoma cruzi activity (epimastigote growth, absorbance 600 nm); type: cell-based; settings: for IC50: Trypanosoma cruzi, TULAHUEN, 120 h, read-out: IC50 on T. cruzi epimastigotes
Protocol: (§1) For the anti-Trypanosoma and anti-Leishmania activity assays, we followed the methods described by Aguilera et al., 2019 [15].
For the in vitro anti-Trypanosoma cruzi activity, epimastigotes of the Tulahuen 2 strain (genotype TcVI) grown in an axenic medium (BHI-Tryptose) were used. Cells from a 5–7-day-old culture were inoculated in a fresh culture medium to give an initial concentration of 10^6 cells/mL. The absorbance at 600 nm of the cells in culture was measured every day. On day five, the medium was inoculated with different doses of the compounds (25–0.05 µM) from a stock solution in dimethylsulfoxide (DMSO) (DMSO concentration in the culture medium never exceeded 0.4%). Control parasites were cultivated in medium with 0.4% DMSO v/v. Benznidazole was used as a positive control. At five days, the absorbance of the culture was measured and compared to the control and the IC50 values were calculated for each compound using OriginLab 8.5® sigmoidal regression. Each experiment was done in duplicate, and each concentration was tested in triplicate.

[2] = system: Leishmania infantum promastigotes; test: anti-Leishmania activity (promastigotes, resazurin); type: cell-based; settings: 48 h, read-out: IC50 on L. infantum promastigotes
Protocol: as §1
Leishmania infantum (MHOM/BR/2002/LPC-RPV) was obtained from Fiocruz (Collection of Oswaldo Cruz Foundation, Rio de Janeiro, Brazil). Promastigotes were cultured as described with some modifications at 28°C in an axenic medium (BHI-Tryptose supplemented with: FBS 10%, hemine 2 × 10^−5 mg/mL, glucose 3.0 × 10^−4 g/mL, streptomycin 2.0 × 10^−4 g/mL, ampicillin 1.3 × 10^−4 g/mL) as a low-cost alternative for Leishmania spp. culture. Assays were performed in 96-well plastic plates using 2 × 10^6 promastigotes per well. Compounds were dissolved in DMSO. Different serial dilutions (25–0.05 µM) of the compounds with a final volume up to 200 µL were added. After 48 h at 28°C, 20 µL of a 2 mM resazurin solution was added, and the oxidation-reduction was quantified at 570 and 600 nm. The resazurin solution was prepared at 2.5 mM in phosphate-buffered solution (PBS), pH 7.4, and filtered through 0.22 µm before use. Resazurin sodium salt was obtained from Sigma-Aldrich (St. Louis, MO, USA) and stored at 4°C protected from light. Glucantime was used as a positive control. The efficacy of each compound was estimated by calculating the IC50 values using OriginLab 8.5® sigmoidal regression. Each antiproliferative experiment was done in duplicate, and each concentration was tested in triplicate.

cytotoxicity assay (MTT) = type: cell-based; settings: mouse
Protocol: The cytotoxicity of the dewaxed dichloromethane extract of U. hecatantha and the isolated compounds was evaluated according to the method described by Aguilera et al., 2019 [15]. The J774.1 murine macrophages (ATCC, USA) were grown in a DMEM culture medium containing 4 mM L-glutamine and supplemented with 10% FCS. Cells were seeded in a 96-well plate (5.00 × 10^4 cells in 200 µL culture medium) and incubated at 37°C in a 5% CO2 atmosphere for 48 h, to allow cell adhesion before drug testing. Afterwards, cells were exposed for 48 h to the compounds (25–400 µM) or the vehicle for control (medium with 0.4% DMSO v/v), and additional control (cells in medium) were used in each test. Cell viability was then assessed by measuring the mitochondria-dependent reduction of MTT [3-(4,5-dimethylthiazol-2-yl)-2,5-diphenyltetrazolium bromide] to formazan. For this purpose, MTT in sterile PBS (containing 0.2% glucose), pH 7.4, was added to the macrophages to achieve a final concentration of 0.1 mg/mL, and the cells were incubated at 37°C for 3 h. After removing the medium, formazan crystals were dissolved in 180 µL of DMSO and 20 µL of MTT buffer (0.1 M glycine, 0.1 M NaCl, 0.5 mM EDTA, pH 10.5), and the absorbance at 560 nm was measured. The CC50 was defined as the drug concentration at which 50% of the cells were viable, relative to the control (no drug added), and was determined using OriginLab 8.5® sigmoidal regression (% of viable cells compared to the logarithm of the compound concentration). Tests were performed in triplicate.

[3] = system: Trypanosoma brucei rhodesiense trypomastigotes; settings: cited from earlier work
[4] = system: L6-cell line from rat-skeletal myoblasts; parameters: method as in PMID 29244495; settings: read-out: CC50 on L6 cells; cited from earlier work
[5] = Leishmania infantum, promastigotes

Molecule | IC50 ([1]; epimastigotes, 5 days) | IC50 [2, 5] | CC50 at 48 h (cytotoxicity assay (MTT); J774.1 murine macrophages) [µM] | other results
C=C(C)c1cc2cc(C(C)=O)c(O)cc2o1 [compound 1, euparin] | – | – | – | IC50 [1]: > 25 µM; IC50 ([2]; Leishmania infantum): 18 µM and 3.9 µg/mL; CC50 at 48 h (cytotoxicity assay (MTT); murine macrophages): > 25 µM
C=C1C(=O)O[C@@H]2/C=C(/C)[C@@H](OC(C)=O)C/C=C(\C)C[C@@H](OC(=O)/C(=C/CO)CO)[C@@H]12 [compound 4, eucannabinolide] | 10 µM and 4.2 µg/mL | > 25 µM | – | IC50 ([3]; loaded onto polylactic acid nanoparticles, target not restated in the sentence, read-out: free drug equivalent IC50): 3.32 µM; IC50 ([3]; read-out: IC50 against Trypanosoma brucei rhodesiense trypomastigotes): 1.1 ± 0.1 µM; selectivity index (SI) on T. cruzi ([1]; macrophage CC50 versus T. cruzi epimastigote IC50): 1.5; CC50 [4]: 7.8 ± 0.8 µM; CC50 (cytotoxicity assay (MTT); murine macrophages, 48 h): 15 µM
Glucantime [reference compound] | – | – | – | IC50 ([2]; promastigotes): 26 ± 9 µM

More lines, main results first:

IC50 ([1]; epimastigotes, 5 days) | Molecule | IC50 [2, 5] | CC50 at 48 h (cytotoxicity assay (MTT); J774.1 murine macrophages) [µM] | other results
7 ± 2 µM | O=C(Cn1ccnc1[N+](=O)[O-])NCc1ccccc1 [benznidazole, reference compound] | – | – | –
> 25 µM | COc1cc(-c2oc3cc(O)c(OC)c(O)c3c(=O)c2OC)ccc1O [compound 2, jaceidin] | > 25 µM | > 25 | –
18 µM and 7.6 µg/mL | C=C1C(=O)O[C@@H]2/C=C(\C)[C@@H](O)C/C=C(\C)C[C@@H](OC(=O)/C(=C/CO)COC(C)=O)[C@@H]12 [compound 3, santhemoidin C] | 19 µM and 8 µg/mL | > 15 | –
